In US9889155B2, “Enhancer of anti-tumor effect of anti-cancer agent” (priority 2014, dated 2018):
Values after ≈ are worked out from the molar mass of the structure shown. Structures can show the parent of a compound that is named as a salt.

How the values were obtained:
[1] = test system: Human colorectal cancer cells (HCT116); experiment: IC50 of anticancer agents against HCT116 cells with or without sCA particles, cell count at 48 hours (Example 2); type: cell-based
Experimental: At 48 hours after the addition of each of the anticancer agents, the number of cells was counted, and the IC50 (concentration of 5-fluorouracil that kills 50% of the cancer cells) value was determined.

[2] = test system: Human colorectal cancer cells (HCT116); experiment: IC50 of 5-fluorouracil against HCT116 cells with or without sCA particles, cell count (Example 1); type: cell-based; conditions: sCA(1) particles added 24 hours before, where used
Experimental: At 24, 48, and 72 hours after the addition of 5-fluorouracil, the number of cells was counted, and IC50 (concentration of 5-fluorouracil that kills 50% of the cancer cells) values were determined.

[3] = test system: human colorectal cancer cell line HT29 subcutaneous tumor; experiment: Doxorubicin accumulation in HT29 subcutaneous tumors, IVIS Spectrum fluorescent imaging (Example 7); type: in vivo, BALB/cA nude mice; conditions: HT29 tumor mice; doxorubicin hydrochloride 1.5 mg/mouse via tail vein; tumors removed after 2 hours; sCA(2) particles 3 hours before, where used; FIG. 9
Experimental: At the time when the tumors reached about 10 mm in diameter, the mice were randomly divided into the two groups shown in Table 5, and each group was administered the drug. After 2 hours from the drug administration, tumors were removed from the mice, and doxorubicin hydrochloride accumulated in the tumors was detected by fluorescent imaging using the IVIS Spectrum. For doxorubicin (DOX), detection of fluorescence wavelength has been confirmed by the IVIS Spectrum (FIG. 8).

[4] = 48 hours after addition of anticancer agent, With sCA particles, read-out: IC50 (mean ± SD), With sCA particles
[5] = 48 hours after addition of anticancer agent, Without sCA particles, read-out: IC50 (mean ± SD), Without sCA particles
[6] = Homo sapiens, HCT-116, 48 hours after addition of anticancer agent, With sCA particles, read-out: IC50 (mean ± SD), With sCA particles
[7] = Homo sapiens, HCT-116, 48 hours after addition of anticancer agent, Without sCA particles, read-out: IC50 (mean ± SD), Without sCA particles

## N.N.[Cl][Pt][Cl] [Cisplatin, cisplatin]
[1]; [4]
  IC50: 39.2 ± 2.7 µM
[1]; [5]
  IC50: 31.3 ± 0.9 µM

## O=c1[nH]cc(F)c(=O)[nH]1 [5-fluorouracil]
[2]; HCT-116, 24 hours after addition of 5-fluorouracil, read-out: IC50 (mean ± SD), After 24 hr
  IC50: 215 ± 141 µg/mL (≈ 1650 µM)
[2]; HCT-116, 48 hours after addition of 5-fluorouracil, read-out: IC50 (mean ± SD), After 48 hr
  IC50: 4.07 ± 0.473 µg/mL (≈ 31.3 µM)
[2]; HCT-116, 72 hours after addition of 5-fluorouracil, read-out: IC50 (mean ± SD), After 72 hr
  IC50: 2.64 ± 0.696 µg/mL (≈ 20.3 µM)
[1]; [6]
  IC50: 74.6 ± 10 µM
[1]; [7]
  IC50: 11.7 ± 2 µM

## COc1cccc2c1C(=O)c1c(O)c3c(c(O)c1C2=O)C[C@@](O)(C(=O)CO)C[C@@H]3O[C@H]1C[C@H](N)[C@H](O)[C@H](C)O1 [doxorubicin hydrochloride]
[3]
  doxorubicin accumulated in the tumor (fluorescent imaging): only a small amount of doxorubicin was detected in the tumor

## O=C1[O][Pt]2([NH][C@@H]3CCCC[C@H]3[NH]2)[O]C1=O [Oxaliplatin, oxaliplatin]
[1]; [4]
  IC50: 31.3 ± 2.2 µM
[1]; [5]
  IC50: 3.7 ± 1.1 µM

## CC(=O)O[C@@]12CO[C@@H]1C[C@H](O)[C@@]1(C)C(=O)[C@H](O)C3=C(C)[C@@H](OC(=O)[C@H](O)[C@@H](NC(=O)OC(C)(C)C)c4ccccc4)C[C@@](O)([C@@H](OC(=O)c4ccccc4)[C@H]21)C3(C)C [Docetaxel, docetaxel]
[1]; [6]
  IC50: 0.00917 ± 0.00042 µM
[1]; [7]
  IC50: 0.000353 ± 7e-05 µM
